Patent US6861529B2, “Cycloalkypyrrole-3-carboxylic acid derivatives and heterocycloalkylpyrrole-3-carboxylic acid derivatives” (Pfizer Inc, priority 2001, dated 2005)

The compounds below were run against benzodiazepine site of the GABAA receptor (assay: Binding assay (3H-Ro15-1788 displacement, rat cortical tissue homogenate)). Settings: 0.5 nM 3H-Ro15-1788 [3H-Flumazenil], 30 min at 4° C., Cheng-Prussof equation.

| Compound | Ki |
| --- | --- |
| CC(C)C1CCc2[nH]cc(C(=O)Nc3ccccn3)c2C(=O)C1 (stereo not drawn) [Example 3, 6-Isopropyl-4-oxo-1,4,5,6,7,8-hexahydro-cyclohepta[b]pyrrole-3-carboxylic acid pyridin-2-ylamide] | 1 nM |
| O=C(Nc1ccccn1)c1c[nH]c2c1C(=O)CC(c1ccc(F)cc1)CC2 (stereo not drawn) [Example 4, 6-(4-Fluoro-phenyl)-4-oxo-1,4,5,6,7,8-hexahydrocyclohepta[b]pyrrole-3-carboxylic acid pyridin-2-ylamide] | 7 nM |
| O=C(Nc1ccccn1)c1c[nH]c2c1C(=O)C1CNCC1CC2 (stereo not drawn) [Example 7, 4-Oxo-4,4a,5,6,7,7a,8,9-octahydro-1H-1,6-diaza-cyclopenta[f]azulene-3-carboxylic acid pyridin-2-ylamide] | 7 nM |
| O=C(Nc1ccccn1)c1c[nH]c2c1C(=O)C1CN(Cc3ccccc3)CC1CC2 (stereo not drawn) [Example 6, 6-Benzyl-4-oxo-4,4a,5,6,7,7a,8,9-octahydro-1H-1,6-diaza-cyclopenta[f]azulene-3-carboxylic acid pyridin-2-ylamide] | 4 nM |
| COc1ccc(C2CCc3[nH]cc(C(=O)Nc4ccccn4)c3C(=O)C2)cc1F (stereo not drawn) [Example 5, 6-(3-Fluoro-4-methoxy-phenyl)-4-oxo-1,4,5,6,7,8-hexahydro-cyclohepta[b]pyrrole-3carboxylic acid pyridin-2-ylamide] | 8 nM |
| CN1CC2CCc3[nH]cc(C(=O)Nc4ccccn4)c3C(=O)C2C1 (stereo not drawn) [Example 8, 6-Methyl-4-oxo-4,4a,5,6,7,7a,8,9-octahydro-1H-1,6-diaza-cyclopenta[f]azulene-3-carboxylic acid pyridin-2-ylamide] | 8 nM |
| O=C(Nc1ccccn1)C1C=NC2=C1C(Nc1ccccn1)CCCC2 (stereo not drawn) [Example 10, 4-(Pyridin-2-ylamino)-3,4,5,6,7,8-hexahydro-cyclohepta[b]pyrrole-3-carboxylic acid pyridin-2-ylamide] | 24 nM |
| CC1CCc2[nH]cc(C(=O)Nc3ccccn3)c2C(=O)C1 (stereo not drawn) [Example 2, 6-Methyl-4-oxo-1,4,5,6,7,8-hexahydro-cydohepta[b]pyrrole-3-carboxylic acid pyridin-2-ylamide] | 2 nM |
| CN(C)CC1CCc2[nH]cc(C(=O)Nc3ccccn3)c2C(=O)C1 (stereo not drawn) [Example 9, 6-Dimethylaminomethyl-4-oxo-1,4,5,6,7,8-hexahydro-cyclohepta[b]pyrrole-3-carboxylic acid pyridin-2-ylamide] | 23 nM |
